According to patent US7772402B2, “Optically detectable organophosphonates” (Austria Wirtschaftsservice Gesellschaft Mit Beschrankter …, priority 2003, dated 2010):

What was measured:
[1] = biological target: T1, lipase from Pseudomonas cepacia (PCL) (Burkholderia cepacia, UniProt P22088); assay: Inhibition of lipase activity in Triton X-100 micelles, continuous fluorescence method; assay type: biochemical; conditions: incubation 4° C., 16 hrs; FIG. 3b
T1 construct: R.D. Schmid, University of Stuttgart (obtained, not a commercial purchase)
Protocol: (§1) Inhibition of lipase activity by the water-insoluble phosphonates was performed in Triton X-100 micelles (2 mM final concentration) and measured by a continuous fluorescence method according to Duque et al, (J. Lipid Res. 37, 868-876 (1996)) using 3-O-hexadecyl-2-pyrenedecanoyl-1-trinitrophenylaminododecanoyl-sn-glycerol as a substrate. Lipase activity was determined at 30° C. from the dequenching of pyrene fluorescence at 378 nm (excitation at 342 nm, slit widths 5.0 nm each) (the initial linear increase in fluorescence intensity after addition of the lipase was used to measure enzyme activity). The measurements were performed in ethanol-water (1:3 by vol.) as a solvent.
(§2) Triton X-100 specially purified for membrane research (Hofmann La Roche) (10 μL of a 100 mM stock solution in chloroform) and the appropriate volume of a phosphonate solution in chloroform were mixed and the solvent was removed under a stream of nitrogen. The residue was dispersed in an 100 μM Tris-HCl puffer (pH 7.40 at 37° C.) by vigorous vortexing followed by addition of an aliquot of a lipase solution, giving a total volume of 500 μL. Incubations were performed at 4° C. The percentage of inhibition after 16 hrs in the reaction mixture was determined by measuring the residual lipase activity of appropriate aliquots (3 μL) as indicated above. Controls were run in parallel under identical conditions but in the absence of inhibitors.
(§3) The novel compounds were tested with respect to their ability to inhibit three selected microbial lipases with different substrate preferences. The lipase from Rhizopus oryzae was efficiently inactivated by the perylene- and NBD-inhibitors (FIG. 3a) at 4° C. for 16 hrs in 100 μM Tris-HCl puffer at inhibitor and lipase concentrations of 1.0 mM and 0.1 mM, respectively. […] This is in line with the assumption that lipases prefer long-chain glycerol esters as substrates, and evidently inhibitors as well. […] In contrast, the Pseudomonas species lipase was quantitatively inactivated by all synthesized organophosphonates (FIG. 3c).

[2] = biological target: T2, lipase from Rhizopus oryzae (ROL) (Rhizopus oryzae, UniProt P61872); assay: as above; assay type: biochemical; conditions: 4° C. for 16 hrs, 100 μM Tris-HCl puffer, inhibitor 1.0 mM, lipase 0.1 mM; FIG. 3a
T2 construct: F. Spener and L. Haalck, University of Münster (gift)
T2 sequence (P61872 96-392): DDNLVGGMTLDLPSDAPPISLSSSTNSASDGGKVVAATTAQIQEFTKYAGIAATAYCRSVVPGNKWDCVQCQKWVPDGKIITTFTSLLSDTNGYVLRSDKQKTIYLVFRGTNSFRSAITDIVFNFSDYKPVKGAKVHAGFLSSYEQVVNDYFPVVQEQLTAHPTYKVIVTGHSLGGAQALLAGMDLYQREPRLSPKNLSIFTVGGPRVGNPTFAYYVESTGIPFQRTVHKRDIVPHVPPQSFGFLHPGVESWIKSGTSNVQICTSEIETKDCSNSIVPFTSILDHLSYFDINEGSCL
Protocol: as §1, §2, §3

T1 sequence (P22088 45-364): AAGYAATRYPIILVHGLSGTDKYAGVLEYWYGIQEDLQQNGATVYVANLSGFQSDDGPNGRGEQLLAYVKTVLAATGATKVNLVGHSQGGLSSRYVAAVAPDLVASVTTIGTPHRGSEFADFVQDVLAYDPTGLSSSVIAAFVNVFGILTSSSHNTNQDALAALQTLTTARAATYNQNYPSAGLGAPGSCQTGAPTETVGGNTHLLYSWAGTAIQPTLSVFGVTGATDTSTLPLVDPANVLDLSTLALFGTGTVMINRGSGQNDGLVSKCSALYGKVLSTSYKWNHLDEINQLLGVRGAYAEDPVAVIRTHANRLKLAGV

SMILES: CCCCCCCCOCC(COP(=O)(CCCCCC)Oc1ccc([N+](=O)[O-])cc1)NC(=O)CCCc1ccc2c3cccc4cccc(c5cccc1c52)c43 (stereo not drawn) [XXII, 2-(4-(3-Perylenyl)butanoyl)amino-2-deoxy-3-O-octyl-sn-glycero-1-O-hexylphosphonate p-nitrophenyl ester]
- inhibition of lipase from Pseudomonas cepacia [1]: much more potent inhibitor

SMILES: CCCCCCCCCCCCCCCCOCC(COP(=O)(CCCCCC)Oc1ccc([N+](=O)[O-])cc1)NC(=O)CCCCCCCc1ccc2c3cccc4cccc(c5cccc1c52)c43 (stereo not drawn) [XXIII, 2-(8-(3-Perylenyl)octanoyl)amino-2-deoxy-3-O-hexadecyl-sn-glycero-1-O-hexylphosphonate p-nitrophenyl ester]
- inhibition (inactivation) of lipase from Rhizopus oryzae [2]: somewhat more active

SMILES: CCCCCCCCCCCCCCCCOCC(COP(=O)(CCCCCC)Oc1ccc([N+](=O)[O-])cc1)NC(=O)CCCCCCCCCCCNc1ccc([N+](=O)[O-])c2nonc12 (stereo not drawn) [XXV, 2-(NBD-dodecanoyl)amino-2-deoxy-3-O-hexadecyl-sn-glycero-1-O-hexylphosphonate p-nitrophenyl ester]
- inhibition (inactivation) of lipase from Rhizopus oryzae [2]: slightly more effective
